Columns and labels:
Test in all cases: relative viability (nuclei count vs DMSO), 5 days (fraction); higher = more cells survive
[1] = compound: C1CC(C2=C(C1)C3=C(N2)C=CC(=C3)Cl)C(=O)N [Selisistat]
Procedure, shortened: (§1)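 Five library-drug doses, separated by factors of √10, were pinned into 1536-well plates holding lung cancer cell lines after an overnight stay at 37 °C. Cells were fixed, permeabilised and Hoechst-stained in one step after 5 days without medium change, then imaged at 4×. Viability compares treated-well with vehicle-well nuclei, counted in MetaXpress, as a median across plates. Passing plates had control CV below 25% and at least one doubling.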

[2] = compound: c1ccc2c(CCNc3ccc(Nc4ccncc4)cc3)c[nH]c2c1 [Serdemetan]
Procedure, shortened: as §1

[3] = compound: C1CC(C2=C(C1)C3=C(N2)C=CC(=C3)Cl)C(=O)N [Selisistat] + CC1(C)CCC(c2ccc(Cl)cc2)=C(CN2CCN(c3ccc(C(=O)NS(=O)(=O)c4ccc(N[C@H](CCN5CCOCC5)CSc5ccccc5)c(S(=O)(=O)C(F)(F)F)c4)cc3)CC2)C1 [Navitoclax] (partner 0.5 µM)
Procedure, shortened: (§2)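 Medians of duplicate plates are given as relative viability. That measure is the nuclei count in treated wells divided by the count in vehicle wells. Counts were taken on 4× images of lung cancer cell lines in 1536-well plates, 5 days after pin-tool dosing the day after seeding with one drug alone or a fixed anchor-drug dose plus five library-drug doses (not always all listed) in √10 steps.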

[4] = compound: C1CC(C2=C(C1)C3=C(N2)C=CC(=C3)Cl)C(=O)N [Selisistat] + COc1cc2c(Oc3ccc(NC(=O)C4(C(=O)Nc5ccc(F)cc5)CC4)cc3F)ccnc2cc1OCCCN1CCOCC1 [Foretinib] (partner 0.25 µM)
Procedure, shortened: as §2

Cell Line	relative viability ([1]; 0.4 µM)	relative viability ([1]; 1.265 µM)	relative viability ([1]; 4 µM)	relative viability ([1]; 12.65 µM)	relative viability ([1]; 40 µM)	relative viability ([2]; 0.04 µM)	relative viability ([2]; 0.1265 µM)	relative viability ([2]; 0.4 µM)	relative viability ([2]; 1.265 µM)	relative viability ([2]; 4 µM)	relative viability ([3]; first compound 0.4 µM)	relative viability ([3]; first compound 1.265 µM)	relative viability ([3]; first compound 4 µM)	relative viability ([3]; first compound 12.65 µM)	relative viability ([3]; first compound 40 µM)	relative viability ([4]; first compound 0.4 µM)	relative viability ([4]; first compound 1.265 µM)	relative viability ([4]; first compound 4 µM)	relative viability ([4]; first compound 12.65 µM)	relative viability ([4]; first compound 40 µM)
NCI-H1650	0.823	0.844	0.829	0.905	0.911	0.916	0.892	0.788	0.759	0.688	1.16	1.41	1.14	1.31	1.12	1.11	1.03	1.02	0.999	1.18
NCI-H1395	1.02	0.883	0.701	0.863	0.9	0.869	1.02	0.927	0.804	0.61	1.19	1.14	1.07	1.13	0.937	1.01	0.993	0.909	1.03	0.878
LU99A	1.09	0.992	0.987	0.874	1.01	1.01	0.911	0.903	0.52	0.427	0.797	0.864	0.864	0.915	0.966	0.825	0.744	0.774	0.773	0.801
NCI-H1355	1.02	0.987	0.832	0.97	1.03	0.99	1.05	0.907	0.936	0.918	1.01	0.887	–	1.03	1.03	0.933	0.991	0.955	0.99	0.993
HCC-78	0.954	1.08	0.7	0.875	0.939	0.998	0.752	0.842	0.828	0.648	0.961	0.836	0.765	0.705	0.714	0.497	0.567	0.414	0.562	0.592
HCC-15	1.08	1.04	–	1.02	1.21	1.03	0.999	0.94	0.807	0.712	0.778	0.737	–	0.756	0.742	1.21	0.996	–	1.05	1.21
EKVX	1.05	0.993	0.788	0.902	0.92	0.987	0.987	0.647	0.627	0.891	0.905	0.918	0.745	0.874	0.945	0.808	0.83	0.595	0.866	0.867
NCI-H2087	1.18	1.06	–	0.89	0.97	1.16	1.08	0.944	0.57	0.409	1.13	0.99	1.02	0.926	0.779	1.09	1.12	–	1.01	1.05
LK-2	0.963	0.891	1	0.913	1.02	0.999	1.02	1.01	0.848	0.887	1.01	0.746	0.954	0.847	1.04	0.955	1.04	1.45	0.955	1.01
NCI-H1437	0.945	0.974	0.805	0.933	0.855	0.905	0.994	0.98	0.928	0.799	1.13	1.1	1.1	1.01	0.919	1.29	1.21	1.33	1.06	1
COR-L23	1.05	1.06	1.08	0.908	1.01	0.951	0.988	1.06	0.823	0.874	0.994	1.09	1.07	0.939	0.928	1.08	0.981	1.04	1.03	0.996
NCI-H838	1.03	0.958	0.863	0.96	0.985	0.959	0.976	0.98	0.92	1.14	1.31	1.2	1.13	1.12	1.22	1.03	1.03	0.957	1.07	0.962
A549	1.05	0.901	0.952	0.898	0.982	0.907	0.938	0.932	0.778	0.59	1.27	1.14	1.34	1.28	1.28	1.04	0.826	0.945	0.917	0.985
A-427	1.03	0.984	0.845	0.971	0.944	0.954	1	1.03	0.762	0.825	0.98	0.986	1.04	0.878	1.11	1.02	0.976	1.02	1.12	0.984
LCLC-97TM1	0.941	0.933	–	0.962	1.09	1.08	0.975	0.925	0.802	0.894	0.535	0.476	0.621	0.473	0.483	0.861	0.849	–	0.907	0.862
NCI-H1703	0.894	0.834	0.9	0.853	0.848	1.08	0.84	0.882	0.764	0.71	1.24	1.15	1.25	1.42	1.27	0.338	0.336	0.365	0.356	0.313

— the supplement of paper PMC10307832
